target: T1, DGAT1 (Homo sapiens, UniProt O75907); experiment: DGAT CHOK1 Cell Assay; type: cell-based; conditions: CHOK1 cells transfected with DGAT1, 14C palmitic acid, 1 hour at 37° C., triglyceride by TLC
T1 construct: expressed in transfected cells; host or cells: CHOK1
T1 sequence (O75907 1-488): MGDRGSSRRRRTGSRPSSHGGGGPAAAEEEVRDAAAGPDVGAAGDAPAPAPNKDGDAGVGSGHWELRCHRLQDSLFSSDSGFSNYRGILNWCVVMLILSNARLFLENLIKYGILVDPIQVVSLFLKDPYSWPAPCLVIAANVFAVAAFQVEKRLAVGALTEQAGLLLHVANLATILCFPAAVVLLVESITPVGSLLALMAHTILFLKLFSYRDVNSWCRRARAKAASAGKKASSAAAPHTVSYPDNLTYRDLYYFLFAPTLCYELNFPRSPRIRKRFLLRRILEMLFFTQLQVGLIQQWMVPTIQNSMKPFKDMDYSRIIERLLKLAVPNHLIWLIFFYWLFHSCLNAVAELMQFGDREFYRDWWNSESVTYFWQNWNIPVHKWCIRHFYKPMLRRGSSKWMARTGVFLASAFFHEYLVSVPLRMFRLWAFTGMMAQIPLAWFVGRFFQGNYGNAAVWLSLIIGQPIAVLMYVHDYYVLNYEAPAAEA
Description: Materials for the assay were: petroleum ether (J. T. Baker #9268-22); diethyl ether (Aldrich #30995-8); acetic acid; 1,2-dioleoyl-3-palmitoyl-glycerol (Sigma D-1782); ^[…] Palmitic Acid (56.0 mCi/mmol PerkinElmer Life Sciences # NEC 075H); DMEM/F12 (Gibco #11330-032); fetal bovine serum; L-Glutamine; G418/ml media; DMEM High Glucose (Gibco #11995-065); BSA Fraction V Fatty Acid Free (Roche #100 377); 20×°cm silica gel 60 glass plates (EM Science Plates #5721/7).
CHOK1/DGAT cell culture medium was prepared with DMEM/F12 (Gibco #11330-032), […], and 20 ul G418/ml media. 1,2-dioleoyl-3-palmitoyl-glycerol was prepared by dissolving 10 mg into 1 ml chloroform and stored at −20° C. in 100 μl aliquots. Test compounds were prepared as 10 mM stock solutions in DMSO and store at −20° C. before use. Test dilutions were prepared by five fold serial dilutions over final concentrations.
CHOK1 cells transfected with DGAT1 were diluted in 6 well plates at 2.5×10^5 cells per well and cultured overnight. Cells were then washed twice with PBS. Test compound solutions (10 μl/2 ml media aliquots) in DMEM High Glucose with 0.01% BSA (fatty acid free) were added to cell culture plates at 800 μl per well. ^14C Palmitic acid (0.5 μCi, 5 μl) was added to each well. The plates were incubated for 1 hour at 37° C. After the incubation period, the plates were placed on ice, cells were scraped into media and transferred to microfuge tubes. 400 μl chloroform:methanol (2:1) was added to each tube. Each tube was briefly vortexed by hand, then mechanically vortexed for 10 minutes. Each tube was then centrifuged at 14,000 RPM for 10 minutes at 4° C. and the bottom layer removed and transferred to a new microfuge tube.
Extracted samples were spotted onto TLC plates at 20 μl per lane. The TLC plates were eluted with a solvent mixture of petroleum ether, diethyl ether and acetic acid (80:20:1) and air dried. Trigylceride (TG) spots were visualized by placing in an iodine chamber for several minutes. 1 μl of ^14C palmitic acid (diluted 1:10 in 100% EtOH) was spotted on the TG standard lane (at TG level) as a reference. The TLC plates were wrapped in plastic wrap and placed in a phosphorimager cassette for scanning.
The EC50 values for those compounds tested in this Example were generated using an Excel template, the results of which are shown in Table II: […]

**Q.** Which EC50 does the source give for `Cc1ccccc1-c1cc(F)ccc1OCC(=O)N(NC(=O)c1ccccc1)C(C)C` [Example 3, benzoic acid N′-[2-(5-fluoro-2′-methyl-biphenyl-2-yloxy)-acetyl]-N′-isopropyl-hydrazide] here?
**A.** 1.02 µM

**Q.** With `COc1cccc(-c2ccccc2SCC(=O)N(NC(=O)c2ccccc2)C(C)C)c1` [Example 50, benzoic acid N′-[2-(3′-methoxy-biphenyl-2-ylsulfanyl)-acetyl]-N′-isopropyl-hydrazide] as the compound, how does the EC50 read?
**A.** 1.29 µM

**Q.** How did the EC50 turn out when `CC(C)CNc1ccc(C(=O)NN(C(=O)COc2ccc(F)cc2-c2ccccc2OC(F)(F)F)C(C)C)cc1` [Example 57, 4-(isobutylamino)-benzoic acid N′-[2-(5-fluoro-2′-trifluoromethoxy-biphenyl-2-yloxy)-acetyl]-N′-isopropyl hydrazide] was run?
**A.** 0.348 µM

**Q.** How did the EC50 turn out when `CC(C)Oc1ccccc1-c1cc(F)ccc1OCC(=O)N(NC(=O)c1ccccc1)C(C)C` [Example 15, benzoic acid N′-[2-(5-fluoro-2′-isopropoxy-biphenyl-2-yloxy)-acetyl]-N′-isopropyl-hydrazide] was run?
**A.** 4.86 µM

**Q.** `CCc1ccccc1-c1cc(F)ccc1OCC(=O)N(NC(=O)c1ccc(OCCOC)cc1)C(C)C` [Example 30, 4-(2-methoxy-ethoxy)-benzoic acid N′-[2-(5-fluoro-2′-ethyl-biphenyl-2-yloxy)-acetyl]-N′-isopropyl hydrazide] was tested. Which EC50 did it give?
**A.** 1.83 µM

**Q.** Which EC50 does the source give for `CC(C)N(NC(=O)c1ccccc1)C(=O)COc1ccc(F)cc1-c1ccccc1` [Example 11, benzoic acid N′-[2-(5-fluoro-biphenyl-2-yloxy)-acetyl]-N′-isopropyl-hydrazide] here?
**A.** 1.85 µM

**Q.** `CC(C)N(NC(=O)c1ccccc1)C(=O)CSc1ccccc1-c1ccc(F)cc1` [Example 51, benzoic acid N′-[2-(4′-fluoro-biphenyl-2-ylsulfanyl)-acetyl]-N′-isopropyl-hydrazide] was tested. Which EC50 did it give?
**A.** 4.9 µM

**Q.** Which EC50 does the source give for `CC(C)N(NC(=O)C1CCCCC1)C(=O)COc1ccc(F)cc1-c1ccccc1OC(F)(F)F` [Example 38, cyclohexanecarboxylic acid N′-[2-(5-fluoro-2′-trifluoromethoxy-biphenyl-2-yloxy)-acetyl]-N′-isopropyl-hydrazide] here?
**A.** 2.81 µM

**Q.** With `CC(C)N(NC(=O)c1ccccc1)C(=O)COc1ccc(F)cc1-c1ccccc1OC(F)(F)F` [Example 20, benzoic acid N′-[2-(5-fluoro-2′-trifluoromethoxy-biphenyl-2-yloxy)-acetyl]-N′-isopropyl-hydrazide] as the compound, how does the EC50 read?
**A.** 0.328 µM

**Q.** Which EC50 does the source give for `CC(C)N(NC(=O)c1ccccc1)C(=O)COc1ccc(F)cc1-c1cccc(F)c1` [Example 9, benzoic acid N′-[2-(5,3′-difluoro-biphenyl-2-yloxy)-acetyl]-N′-isopropyl-hydrazide] here?
**A.** 3.78 µM

**Q.** With `CC(C)N(NC(=O)c1ccccc1)C(=O)COc1ccc(F)cc1-c1cccc(Cl)c1` [Example 10] as the compound, how does the EC50 read?
**A.** 0.91 µM

**Q.** `COC(=O)c1ccccc1-c1cc(F)ccc1OCC(=O)N(NC(=O)c1ccccc1)C(C)C` [Example 18, benzoic acid N′-[2-(2′-methoxycarbonyl-5-fluoro-biphenyl-2-yloxy)-acetyl]-N′-isopropyl-hydrazide] was tested. Which EC50 did it give?
**A.** 2.69 µM

**Q.** With `CC(C)N(NC(=O)c1ccccc1)C(=O)COc1ccc(F)cc1-c1ccccc1Cl` [Example 2, benzoic acid N′-[2-(2′-chloro-5-fluoro-biphenyl-2-yloxy)-acetyl]-N′-isopropyl-hydrazide] as the compound, how does the EC50 read?
**A.** 3.1 µM

**Q.** With `CC(C)c1ccccc1-c1cc(F)ccc1OCC(=O)N(NC(=O)c1ccccc1)C(C)C` [Example 22, benzoic acid N′-[2-(5-fluoro-2′-isopropyl-biphenyl-2-yloxy)-acetyl]-N′-isopropyl-hydrazide] as the compound, how does the EC50 read?
**A.** 0.38 µM

**Q.** With `CC(C)N(NC(=O)c1ccsc1)C(=O)COc1ccc(F)cc1-c1ccccc1OC(F)(F)F` [Example 42, thiophene-3-carboxylic acid N′-[2-(5-fluoro-2′-trifluoromethoxy-biphenyl-2-yloxy)-acetyl]-N′-isopropyl hydrazide] as the compound, how does the EC50 read?
**A.** 3.29 µM

**Q.** For `CC(C)N(NC(=O)c1ccccc1)C(=O)CSc1ccccc1-c1cccc(C(F)(F)F)c1` [Example 52, benzoic acid N′-[2-(3′-trifluoromethyl-biphenyl-2-ylsulfanyl)-acetyl]-N′-isopropyl-hydrazide], which EC50 is on record?
**A.** 1.6 µM

**Q.** Which EC50 does the source give for `CCc1ccccc1-c1cc(F)c(F)cc1OCC(=O)N(NC(=O)c1ccccc1)C(C)C` [Example 27, benzoic acid N′-[2-(2′-ethyl-4,5-difluoro-biphenyl-2-yloxy)-acetyl]-N′-isopropyl-hydrazide] here?
**A.** 2.1 µM

**Q.** How did the EC50 turn out when `COCCOc1ccc(C(=O)NN(C(=O)COc2ccc(F)cc2-c2ccccc2OC(F)(F)F)C(C)C)cc1` [Example 39, 4-(2-methoxy-ethoxy)-benzoic acid N′-[2-(5-fluoro-2′-trifluoromethoxy-biphenyl-2-yloxy)-acetyl]-N′-isopropyl hydrazide] was run?
**A.** 3.05 µM

**Q.** With `CC(C)N(NC(=O)c1ccccc1)C(=O)COc1cc(F)c(F)cc1-c1ccccc1OC(F)(F)F` [Example 32, benzoic acid N′-[2-(4,5-difluoro-2′-trifluoromethoxy-biphenyl-2-yloxy)-acetyl]-N′-isopropyl hydrazide] as the compound, how does the EC50 read?
**A.** 0.938 µM

**Q.** With `CCc1ccccc1-c1cc(F)ccc1OCC(=O)N(NC(=O)c1ccccc1)C(C)C` [Example 16, benzoic acid N′-[2-(2′-ethyl-5-fluoro-biphenyl-2-yloxy)-acetyl]-N′-isopropyl-hydrazide] as the compound, how does the EC50 read?
**A.** 0.216 µM

**Q.** For `CCc1ccccc1-c1cc(C#N)ccc1OCC(=O)N(NC(=O)c1ccccc1)C(C)C` [Example 29, benzoic acid N′-[2-(5-cyano-2′-ethyl-biphenyl-2-yloxy)-acetyl]-N′-isopropyl-hydrazide], which EC50 is on record?
**A.** 1.37 µM

**Q.** `CC(C)N(NC(=O)c1cccs1)C(=O)COc1ccc(F)cc1-c1ccccc1OC(F)(F)F` [Example 40, thiophene-2-carboxylic acid N′-[2-(5-fluoro-2′-trifluoromethoxy-biphenyl-2-yloxy)-acetyl]-N′-isopropyl hydrazide] was tested. Which EC50 did it give?
**A.** 3.48 µM

**Q.** Which EC50 does the source give for `CCOc1ccccc1-c1cc(F)ccc1OCC(=O)N(NC(=O)c1ccccc1)C(C)C` [Example 21, benzoic acid N′-[2-(2′-ethoxy-5-fluoro-biphenyl-2-yloxy)-acetyl]-N′-isopropyl-hydrazide] here?
**A.** 1.34 µM

**Q.** Which EC50 does the source give for `CC(C)N(NC(=O)c1ccccc1)C(=O)COc1c(F)cc(F)cc1-c1ccccc1OC(F)(F)F` [Example 33, benzoic acid N′-[2-(3,5-difluoro-2′-trifluoromethoxy-biphenyl-2-yloxy)-acetyl]-N′-isopropyl hydrazide] here?
**A.** 0.356 µM

**Q.** Which EC50 does the source give for `CC(C)N(NC(=O)c1ccccc1)C(=O)CSc1ccccc1-c1ccccc1` [Example 56, benzoic acid N′-[2-(biphenyl-2-ylsulfanyl)-acetyl]-N′-isopropyl-hydrazide] here?
**A.** 37.4 µM

**Q.** How did the EC50 turn out when `COc1ccccc1-c1cc(F)ccc1OCC(=O)N(NC(=O)c1ccccc1)C(C)C` [Example 4, benzoic acid N′-[2-(5-fluoro-2′-methoxy-biphenyl-2-yloxy)-acetyl]-N′-isopropyl-hydrazide] was run?
**A.** 1.81 µM

**Q.** With `CC(C)N(NC(=O)C1CCOCC1)C(=O)COc1ccc(F)cc1-c1ccccc1OC(F)(F)F` [Example 34, tetrahydro-pyran-4-carboxylic-acid-N′-[2-(5-fluoro-2′-trifluoromethoxy-biphenyl-2-yloxy)-acetyl]-N′-isopropyl-hydrazide] as the compound, how does the EC50 read?
**A.** 1.24 µM

**Q.** For `Cc1cc(F)ccc1-c1cc(F)ccc1OCC(=O)N(NC(=O)c1ccccc1)C(C)C` [Example 25, benzoic acid N′-[2-(5,4′-difluoro-4′-methyl-biphenyl-2-yloxy)-acetyl]-N′-isopropyl-hydrazide], which EC50 is on record?
**A.** 1.37 µM

**Q.** `CCc1ccccc1-c1cc(C)ccc1OCC(=O)N(NC(=O)c1ccccc1)C(C)C` [Example 26, benzoic acid N′-[2-(2′-ethyl-5-methyl-biphenyl-2-yloxy)-acetyl]-N′-isopropyl-hydrazide] was tested. Which EC50 did it give?
**A.** 0.88 µM

— patent publication US7317125B2 (Hoffman-La Roche Inc., priority 2005, dated 2008)
